Patent US20100285959A1, “HERBICIDAL MIXTURES” (priority 2006, published 2010)

Legend:
winter barley (HORVW) = test: Test 22 growth chamber, postemergence; assay type: in vivo, Hordeum vulgare; settings: 25 DAA
Method: (§1) A test was conducted to evaluate the effects on winter barley (HORVW, Hordeum vulgare L.), winter wheat (TRZAW, Triticum aestivum L.), and several weed species of mixtures of Compound 2 with the commercial herbicides (2,4-dichlorophenoxy)acetic acid (2,4-D) and (4-chloro-2-methylphenoxy)acetic acid (MCPA), auxin mimics. […] Plants were treated postemergence at the 2-4 leaf growth stage, except KCHSC, SASKR and STEME which were in the 4-8 leaf growth stage. Each treatment was replicated one time. […] Plants were watered as needed. […] Results are from single replicates.

slender amaranth (AMAVI) = test: Test 12 field trial, preemergence; assay type: in vivo, Amaranthus viridis; design: scale not given here; settings: Cpd 2 or Cpd 1 62 g a.i./ha, Diuron 2000 g a.i./ha
Excerpt: In early-mid spring season, corn seeds (hybrid ‘Pioneer 3041’) were planted 5 cm deep and sugarcane nodes (variety RB-72.454) were planted 10 cm deep in separate plots in a clay soil having 2.6% organic matter and a pH of 5.6. Plots were 24 m long by 1.5 m wide with rows spaced 80 cm (corn) or 140 cm (sugarcane) apart. Corn seeds were spaced 15 cm apart and sugarcane nodes were spaced 10 cm apart within the rows. At the same time, weed seeds were broadcast over the surface of separate plots without a crop, one weed species per plot. The weed plots were rotary tilled to incorporate the weed seeds to a variety of depths. The field was managed using conventional tillage practices.

wild mustard (SINAR) = test: Test 22 growth chamber, postemergence; assay type: in vivo, Sinapis arvensis; settings: 25 DAA
Method: as §1

[1] = system: henbit deadnettle (LAMAM); test: Test 9 field trial, emerged weeds before corn planting; assay type: in vivo, Lamium amplexicaule; settings: g a.i./ha: Cpd 2 100, Glyphosate 1540, Paraquat 1150
Method: (§2) Corn seeds (hybrid ‘Pioneer 34M91 RR’) were planted in mid spring season, about 3.8 cm deep in a silty clay loam soil having a pH of 6.7. Plots were 9.1 m long by 3.0 m. The field was managed using no-till practices. […] Compound 2 and paraquat treatments, alone and in combination, also included a surfactant. Glyphosate, alone and with Compound 2, included ammonium sulfate in the treatment mixture. […] The effects on the weeds in the treated plots and untreated control plots were recorded 7, 14, 23, 30 and 57 days after application. Most of the weed species could not be evaluated at every timing. Corn response was only evaluated 57 days after application. […] Results are the means of the three replicates.

redroot pigweed (AMARE) = test: Test 7 field trial, preemergence; assay type: in vivo, Amaranthus retroflexus
Method: (§3) Plots were 7.6 m long by 3.0 m wide with rows spaced 76 cm apart. Seeds were spaced 15 cm apart within the rows. The field was managed using conventional tillage practices. […] Wild radish was evaluated 14 and 28 days after application. […] Results are the means of the three replicates.

morningglory (IPOSS) = test: Test 7 field trial, preemergence; assay type: in vivo, Ipomoea L. spp.
Method: as §3

winter wheat (TRZAW) = test: Test 21 growth chamber, postemergence; assay type: in vivo, Triticum aestivum; settings: 19 DAA
Method: A test was conducted to evaluate the effects on winter barley (HORVW, Hordeum vulgare L.), winter wheat (TRZAW, Triticum aestivum L.), and several weed species, of mixtures of Compound 2 with the commercial herbicide (2,4-dichlorophenoxy)acetic acid (2,4-D), an auxin mimic. […] Plants were treated postemergence at the 2-4 leaf growth stage, and each treatment was replicated one time. […] Plants were watered as needed. […] Results are from single replicates.

[2] = system: Pennsylvania smartweed (POLPY); test: Test 7 field trial, preemergence; assay type: in vivo, Polygonum pensylvanicum
Method: as §3

[3] = system: smallflower buttercup (RANAB); test: Test 9 field trial, emerged weeds before corn planting; assay type: in vivo, Ranunculus abortivus; settings: g a.i./ha: Cpd 2 100, Glyphosate 1540, Paraquat 1150
Method: as §2

[4] = system: common lambsquarters (CHEAL); test: Test 22 growth chamber, postemergence; assay type: in vivo, Chenopodium album; settings: 25 DAA
Method: as §1

[5] = 2,4-D or MCPA alone 250 g a.i./ha

**Q.** Which results are given for `COC(=O)c1nc(C2CC2)nc(N)c1Cl` [Compound 2, methyl 6-amino-5-chloro-2-cyclopropyl-4-pyrimidinecarboxylate]?
**A.** Postemergence HORVW Obs (winter barley (HORVW); Cpd 2 alone 4 g a.i./ha): 30; Postemergence HORVW Obs (winter barley (HORVW); Cpd 2 alone 8 g a.i./ha): 35; Postemergence HORVW Obs (winter barley (HORVW); Cpd 2 alone 16 g a.i./ha): 40; AMAVI Obs (slender amaranth (AMAVI); 15 DAA): 90; AMAVI Obs (slender amaranth (AMAVI); 29 DAA): 60; AMAVI Obs (slender amaranth (AMAVI); 48 DAA): 40; AMAVI Obs (slender amaranth (AMAVI); 61 DAA): 0; Postemergence SINAR Obs (wild mustard (SINAR); Cpd 2 alone 4 g a.i./ha): 60; Postemergence SINAR Obs (wild mustard (SINAR); Cpd 2 alone 8 g a.i./ha): 65; Postemergence SINAR Obs (wild mustard (SINAR); Cpd 2 alone 16 g a.i./ha): 65; LAMAM Obs ([1]; 7 DAA): 22%; LAMAM Obs ([1]; 14 DAA): 27%; LAMAM Obs ([1]; 23 DAA): 50%; LAMAM Obs ([1]; 30 DAA): 65%; LAMAM Obs ([1]; 57 DAA): 89%; AMARE Obs (redroot pigweed (AMARE); 14 DAA, 125 g a.i./ha): 97%; AMARE Obs (redroot pigweed (AMARE); 14 DAA, 250 g a.i./ha): 100%; AMARE Obs (redroot pigweed (AMARE); 14 DAA, 500 g a.i./ha): 100%; AMARE Obs (redroot pigweed (AMARE); 28 DAA, 125 g a.i./ha): 92%; AMARE Obs (redroot pigweed (AMARE); 28 DAA, 250 g a.i./ha): 100%; AMARE Obs (redroot pigweed (AMARE); 28 DAA, 500 g a.i./ha): 100%; AMARE Obs (redroot pigweed (AMARE); 62 DAA, 125 g a.i./ha): 80%; AMARE Obs (redroot pigweed (AMARE); 62 DAA, 500 g a.i./ha): 100%; IPOSS Obs (morningglory (IPOSS); 14 DAA, 125 g a.i./ha): 100%; IPOSS Obs (morningglory (IPOSS); 14 DAA, 250 g a.i./ha): 100%; IPOSS Obs (morningglory (IPOSS); 14 DAA, 500 g a.i./ha): 100%; IPOSS Obs (morningglory (IPOSS); 28 DAA, 125 g a.i./ha): 100%; IPOSS Obs (morningglory (IPOSS); 28 DAA, 250 g a.i./ha): 100%; IPOSS Obs (morningglory (IPOSS); 28 DAA, 500 g a.i./ha): 100%; IPOSS Obs (morningglory (IPOSS); 62 DAA, 125 g a.i./ha): 100%; IPOSS Obs (morningglory (IPOSS); 62 DAA, 500 g a.i./ha): 100%; Postemergence TRZAW Obs (winter wheat (TRZAW); Cpd 2 alone 16 g a.i./ha): 50; POLPY Obs ([2]; 14 DAA, 125 g a.i./ha): 77%; POLPY Obs ([2]; 14 DAA, 250 g a.i./ha): 95%; POLPY Obs ([2]; 14 DAA, 500 g a.i./ha): 97%; POLPY Obs ([2]; 28 DAA, 125 g a.i./ha): 70%; POLPY Obs ([2]; 28 DAA, 250 g a.i./ha): 93%; POLPY Obs ([2]; 28 DAA, 500 g a.i./ha): 97%; POLPY Obs ([2]; 62 DAA, 125 g a.i./ha): 40%; POLPY Obs ([2]; 62 DAA, 500 g a.i./ha): 100%; RANAB Obs ([3]; 7 DAA): 45%; RANAB Obs ([3]; 14 DAA): 40%; RANAB Obs ([3]; 23 DAA): 60%; RANAB Obs ([3]; 30 DAA): 65%; Postemergence CHEAL Obs ([4]; Cpd 2 alone 4 g a.i./ha): 50; Postemergence CHEAL Obs ([4]; Cpd 2 alone 8 g a.i./ha): 50; Postemergence CHEAL Obs ([4]; Cpd 2 alone 16 g a.i./ha): 65

**Q.** For `O=C(O)CNCP(=O)(O)O` [Glyphosate], which “LAMAM Obs” value ([1]; 7 DAA) is on record?
**A.** Its value is 25%.

**Q.** What about the “LAMAM Obs” value ([1]; 14 DAA) of the same compound?
**A.** The value was 37%.

**Q.** What about the “LAMAM Obs” value ([1]; 23 DAA) of the same compound?
**A.** The value was 79%.

**Q.** And the “LAMAM Obs” value ([1]; 30 DAA)?
**A.** The value was 95%.

**Q.** And the “LAMAM Obs” value ([1]; 57 DAA)?
**A.** Its value is 66%.

**Q.** What about the “RANAB Obs” value ([3]; 7 DAA) of the same compound?
**A.** Its value is 50%.

**Q.** And the “RANAB Obs” value ([3]; 14 DAA)?
**A.** Its value is 80%.

**Q.** And the “RANAB Obs” value ([3]; 23 DAA)?
**A.** The value was 95%.

**Q.** What about the “RANAB Obs” value ([3]; 30 DAA) of the same compound?
**A.** Its value is 100%.

**Q.** `O=C(O)COc1ccc(Cl)cc1Cl` [2,4-D, (2,4-dichlorophenoxy)acetic acid] was tested. Which “Postemergence HORVW Obs” value (winter barley (HORVW); [5]) did it give?
**A.** The value was 10.

**Q.** And the “Postemergence SINAR Obs” value (wild mustard (SINAR); [5])?
**A.** Its value is 75.

**Q.** What about the “Postemergence TRZAW Obs” value (winter wheat (TRZAW); 2,4-D alone 125 g a.i./ha) of the same compound?
**A.** The value was 35.

**Q.** And the “Postemergence TRZAW Obs” value (winter wheat (TRZAW); 2,4-D alone 250 g a.i./ha)?
**A.** Its value is 40.

**Q.** And the “Postemergence CHEAL Obs” value [4, 5]?
**A.** The value was 60.

**Q.** Which results are given for `Nc1nc(C2CC2)nc(C(=O)O)c1Cl` [Compound 1, 6-amino-5-chloro-2-cyclopropyl-4-pyrimidinecarboxylic acid]?
**A.** AMAVI Obs (slender amaranth (AMAVI); 15 DAA): 90; AMAVI Obs (slender amaranth (AMAVI); 29 DAA): 60; AMAVI Obs (slender amaranth (AMAVI); 48 DAA): 40; AMAVI Obs (slender amaranth (AMAVI); 61 DAA): 40

**Q.** What does the source list for `CCc1cccc(C)c1N(C(=O)CCl)[C@@H](C)COC` [S-Metolachlor, S-metolachlor, reference compound]?
**A.** AMARE Obs (redroot pigweed (AMARE); 14 DAA, 1000 g a.i./ha): 97%; AMARE Obs (redroot pigweed (AMARE); 28 DAA, 1000 g a.i./ha): 78%; AMARE Obs (redroot pigweed (AMARE); 62 DAA, 1000 g a.i./ha): 15%; IPOSS Obs (morningglory (IPOSS); 14 DAA, 1000 g a.i./ha): 48%; IPOSS Obs (morningglory (IPOSS); 28 DAA, 1000 g a.i./ha): 50%; IPOSS Obs (morningglory (IPOSS); 62 DAA, 1000 g a.i./ha): 13%; POLPY Obs ([2]; 14 DAA, 1000 g a.i./ha): 60%; POLPY Obs ([2]; 28 DAA, 1000 g a.i./ha): 45%; POLPY Obs ([2]; 62 DAA, 1000 g a.i./ha): 10%
